Assay results reported in patent US20220151989A1, “LIPOIC ACID PRODRUG” (SANTEN PHARMACEUTICAL CO., LTD., priority 2019, published 2022).
Where “and” joins values, the source holds several entries; their conditions need not be identical. Identical values can stand only once.

Experiments:
[1] = system: lens elasticity; assay: Pharmacological Test-4: lens elasticity, once-daily instillation for 2 weeks; format: in vivo, C57BL/6J mice; details: for Lens elasticity improvement: once per day for 14 days, 8-month-old mice
Procedure: The effect of once-daily instillation of Compound 1 for 2 weeks on the lens elasticity was examined.
Compound 1 was stirred with the addition of Vehicle A to give a 0.3% (w/v) emulsion, and the emulsion was diluted with the diluent to give a 0.1% (w/v) emulsion. Further, the resulting 0.1% (w/v) emulsion was diluted with the diluent to give a 0.03% (w/v) emulsion. Further, the resulting 0.03% (w/v) emulsion was diluted with the diluent to give a 0.01% (w/v) emulsion.
EV06 was sonicated with the addition of Vehicle A to give a 1.5% (w/v) solution, which was used for comparison to Compound 1 sample.
1) Each test sample (2.5 μL/eye) was instilled into the right eye of 8-month-old C57BL/6J mice with a Pipetman once per day (around 9:00) for 14 days. 2) After the final instillation, the mice were euthanized by carbon dioxide inhalation, and then the eyeballs were extracted and rinsed with Hank's balanced salt solution (HESS). 3) The sclera near the optic nerve was cut with a razor, the lens was removed through the incision, and the removed lens was immersed in HESS. 4) The lens was placed on a glass slide, and an all-in-one fluorescence microscope BZ-9000 (Keyence) was used to capture an image of the lens (Image a). 5) Next, one cover glass (Corning^(registered trade mark) 22×22 mm Square) was placed on the lens, and an image in which the thickness of the lens changed due to the weight was similarly captured (Image b). 6) A change in the lens diameter was calculated from the following Equation 1 wherein the lens diameter of Image a is subtracted from the lens diameter of Image b. Then, the lens elasticity improvement of each sample group compared with the vehicle control group was calculated from Equation 2 described below. The mean value of the vehicle control group was based on 5 eyes, the mean value of each of the sample groups of compound 1 and EV06 was based on 10 eyes.
(§1) Change in lens diameter=Lens diameter in Image b of each test sample−Lens diameter in Image a of each test sample (Equation 1)
(§2) Lens elasticity improvement of each sample group=Mean change in lens diameter of each Test sample group−Mean change in lens diameter of Vehicle control group (Equation 2)

[2] = system: lens elasticity; assay: Pharmacological Test-5: lens elasticity, once-daily instillation for 1 week; format: in vivo, C57BL/6J mice
Procedure: The effect of once-daily instillation of Compound for 1 week on the lens elasticity was examined.
Compound 1 was stirred with the addition of Vehicle C to give a 0.1% (w/v) solution. A 0.03% […] solution and a 0.01% (w/v) solution were prepared in the same manner.
1) Each test sample (2.5 μL/eye) was instilled into both eyes of 9-month-old C57BL/6J mice with a Pipetman once per day (around 9:00) for 7 days. 2) After the final instillation, the mice were euthanized by carbon dioxide inhalation, and then the eyeballs were extracted and rinsed with Hank's balanced salt solution (HBSS). 3) The sclera near the optic nerve was cut with a razor, the lens was removed through the incision, and the removed lens was immersed in HESS. 4) The lens was placed on a glass slide, and an all-in-one fluorescence microscope BZ-9000 (Keyence) was used to capture an image of the lens (Image a). 5) Next, one cover glass (Corning^(registered trade mark) 22×22 mm Square) was placed on the lens, and an image in which the thickness of the lens changed due to the weight was similarly captured (Image b). 6) A change in the lens diameter was calculated from the following Equation 1 wherein the lens diameter of Image a is subtracted from the lens diameter of Image b. Then, the lens elasticity improvement of each sample group compared with the vehicle control group was calculated from Equation 2 described below. The mean value of the vehicle control group was based on 10 eyes, the mean values of Compound 1 sample group were based on 10 eyes.
as §1, §2

[3] = system: anterior segment of the eye; assay: Ocular Irritation Test-1: modified Draize test and slit lamp examination; format: in vivo, Japanese White rabbit; set-up: key to Irritation Score of anterior segment of the eye: Palpebral conjunctival edema / Irritation Score of anterior segment of the eye: Bulbar conjunctival hyperemia / Irritation Score of anterior segment of the eye: Hyperemia of nictitating membrane / Irritation Score of anterior segment of the eye: Discharge / Slit lamp observation / Irritation Score of anterior segment of the eye: Flare of palpebral conjunctiva: +0.5: very slight; +1: slight; +2: moderate; +3: severe; —: No noteworthy findings; details: for slit lamp examination / irritation in anterior segment of the eye: 0.03% and 0.3% eye drops; for irritation in anterior segment of the eye: modified Draize test; for Irritation Score of anterior segment of the eye: Bulbar conjunctival hyperemia / Irritation Score of anterior segment of the eye: Discharge / Irritation Score of anterior segment of the eye: Flare of palpebral conjunctiva / Irritation Score of anterior segment of the eye: Hyperemia of nictitating membrane / Irritation Score of anterior segment of the eye: Palpebral conjunctival edema / Slit lamp observation: 50 μL/eye ten times at 30 minute intervals, 1 hour after last instillation
Procedure: 0.03% (w/v) and 0.3% (w/v) Compound 1 eye drops, and 0.03% (w/v) and 0.3% (w/v) Compound 3 eye drops were prepared in the same manner as Preparation of Test sample in Pharmacological test-2. Vehicle A was used for a vehicle group. 0.03% (w/v) and 0.3% (w/v) Compound 1 eye drops, 0.03% (w/v) and 0.3% (w/v) Compound 3 eye drops, and the vehicle were each instilled into the left eye of a Japanese White rabbit at a dose of 50 μL/eye with pipette ten times at 30 minute intervals. One hour after the final instillation, ocular irritation of anterior segment of the eye was evaluated according to the modified Draize test, and a slit lamp examination was performed. The contralateral eye was untreated. The ocular irritation of anterior segment of the eye was scored according to the following criteria: +0.5: very slight; +1: slight; +2: moderate; +3: severe

Compound	slit lamp examination [3]	irritation in anterior segment of the eye [3]	Irritation Score of anterior segment of the eye: Bulbar conjunctival hyperemia ([3]; 0.03% eye drop)	Irritation Score of anterior segment of the eye: Discharge ([3]; 0.03% eye drop)	Irritation Score of anterior segment of the eye: Flare of palpebral conjunctiva ([3]; 0.03% eye drop)	Irritation Score of anterior segment of the eye: Hyperemia of nictitating membrane ([3]; 0.03% eye drop)	Irritation Score of anterior segment of the eye: Palpebral conjunctival edema ([3]; 0.03% eye drop)	Slit lamp observation ([3]; 0.03% eye drop)	Irritation Score of anterior segment of the eye: Bulbar conjunctival hyperemia ([3]; 0.3% eye drop)	Irritation Score of anterior segment of the eye: Discharge ([3]; 0.3% eye drop)	Irritation Score of anterior segment of the eye: Flare of palpebral conjunctiva ([3]; 0.3% eye drop)	Irritation Score of anterior segment of the eye: Hyperemia of nictitating membrane ([3]; 0.3% eye drop)	Irritation Score of anterior segment of the eye: Palpebral conjunctival edema ([3]; 0.3% eye drop)	Slit lamp observation ([3]; 0.3% eye drop)	further results
CC(C)=CCOC(=O)CCCC[C@@H]1CCSS1 [Compound 1, 3-Methyl-2-buten-1-yl (R)-5-(1,2-dithiolan-3-yl)pentanoate]	No abnormalities were observed	No irritation was observed	—	—	—	—	—	—	—	—	—	—	—	—	Lens elasticity improvement ([1]; 0.01% (w/v) emulsion): 12.2 μm; Lens elasticity improvement ([1]; 0.03% (w/v) emulsion): 33.8 μm; lens elasticity improvement compared with 1.5% EV06 group ([1]; 0.03%, 0.1% and 0.3% sample groups, instilled once-daily): excellent results compared to 1.5% EV06 group; Lens elasticity improvement ([1]; 0.1% (w/v) emulsion): 34.1 μm; Lens elasticity improvement ([1]; 0.3% (w/v) emulsion): 39.8 μm; Lens elasticity improvement ([2]; 0.01% (w/v) solution in Vehicle C, both eyes, once per day for 7 days, 9-month-old mice): 10.6 μm; Lens elasticity improvement ([2]; 0.03% solution in Vehicle C, both eyes, once per day for 7 days, 9-month-old mice): 20.3 μm; Lens elasticity improvement ([2]; 0.1% (w/v) solution in Vehicle C, both eyes, once per day for 7 days, 9-month-old mice): 60.1 μm; Lens elasticity improvement ([2]; concentration of 0.1%, once-daily for 1 week): potent lens elasticity improvement
C[N+](C)(C)CCOC(=O)CCCC[C@@H]1CCSS1.[Cl-] [EV06, Lipoic acid choline ester, reference compound]															Lens elasticity improvement ([1]; 1.5% (w/v) solution in Vehicle A): 5.8 μm
O=C(CCCC[C@@H]1CCSS1)OCCN1CCN(CCO)CC1 [Compound 3]	No abnormalities were observed	low	+1	+1	+1	+1	+0.5	—	+1 and +2	+1	+1	+1	+1 and +0.5	—	
